Several values for one entry are separate records, joined by “and”; a condition that tells them apart may be missing. Equal entries are not always repeated. Where two headings read alike, the source gives them in different places.
Tested on: Gaeumannomyces graminis
Assay: Gaeumannomyces graminis / liquid culture
Format: cell-based
Settings: for inhibition at 0.2 ppm: 1.001 0.2000 ppm; for inhibition at 0.1 ppm: 1.001 0.1000 ppm
Description: Mycelia fragments or conidia suspensions of a fungus, prepared either freshly from liquid cultures of the fungus or from cryogenic storage, were directly mixed into nutrient broth. DMSO solutions of the test compound (max. 10 mg/ml) was diluted with 0.025% Tween20 by factor 50 and 10 μl of this solution was pipetted into a microtiter plate (96-well format). The nutrient broth containing the fungal spores/mycelia fragments was then added to give an end concentration of the tested compound. The test plates were incubated in the dark at 24° C. and 96% rh. The inhibition of fungal growth was determined photometrically and visually after 2-4 days, depending on the pathosystem, and percent antifungal activity relative to the untreated check was calculated.
Mycelial fragments of the fungus from cryogenic storage were directly mixed into nutrient broth (PDB potato dextrose broth). After placing a (DMSO) solution of test compound into a microtiter plate (96-well format), the nutrient broth containing the fungal spores was added.

[1] = Gaeumannomyces graminis, B4.1, read-out: observed % activity
[2] = Gaeumannomyces graminis, B5.1, read-out: observed % activity
[3] = Gaeumannomyces graminis, B9.1, read-out: observed % activity

CON(C(=O)c1cn(C)nc1C(F)F)C(C)Cc1c(Cl)cc(Cl)cc1Cl (centres unmarked) [Compound 1.001, 3-(difluoromethyl)-N-methoxy-1-methyl-N-[1-methyl-2-(2,4,6-trichlorophenyl)ethyl]pyrazole-4-carboxamide]
observed % activity (1.001 0.0063 ppm): 10% | observed % activity (1.001 0.0125 ppm): 1% | observed % activity (1.001 0.0250 ppm): 6% | observed % activity (1.001 0.0500 ppm): 3% and 1% and 9% | inhibition at 0.0016 ppm (Gaeumannomyces graminis, 1.001 0.0016 ppm, read-out: observed % activity): 0% | inhibition at 0.2 ppm (Gaeumannomyces graminis, B1.1, read-out: observed % activity): 7% | inhibition at 0.0125 ppm (Gaeumannomyces graminis, B2.1, 1.001 0.0125 ppm, read-out: observed % activity): 0% | inhibition at 0.025 ppm (Gaeumannomyces graminis, B2.1, 1.001 0.0250 ppm, read-out: observed % activity): 4% | inhibition at 0.05 ppm (Gaeumannomyces graminis, B2.1, 1.001 0.0500 ppm, read-out: observed % activity): 0% | inhibition at 0.1 ppm (Gaeumannomyces graminis, B2.1, read-out: observed % activity): 0% | inhibition at 0.0031 ppm (Gaeumannomyces graminis, B3.1, 1.001 0.0031 ppm, read-out: observed % activity): 0% | inhibition at 0.0063 ppm (Gaeumannomyces graminis, B3.1, 1.001 0.0063 ppm, read-out: observed % activity): 0% | inhibition at 0.0125 ppm (Gaeumannomyces graminis, B3.1, 1.001 0.0125 ppm, read-out: observed % activity): 8% | inhibition at 0.025 ppm (Gaeumannomyces graminis, B3.1, 1.001 0.0250 ppm, read-out: observed % activity): 0% | inhibition at 0.05 ppm (Gaeumannomyces graminis, B3.1, 1.001 0.0500 ppm, read-out: observed % activity): 0% | inhibition at 0.0125 ppm (Gaeumannomyces graminis, B4.1, 1.001 0.0125 ppm, read-out: observed % activity): 0% | inhibition at 0.025 ppm (Gaeumannomyces graminis, B4.1, 1.001 0.0250 ppm, read-out: observed % activity): 0% | inhibition at 0.05 ppm (Gaeumannomyces graminis, B4.1, 1.001 0.0500 ppm, read-out: observed % activity): 0% | inhibition at 0.1 ppm [1]: 0% | inhibition at 0.2 ppm [1]: 12% | inhibition at 0.025 ppm (Gaeumannomyces graminis, B5.1, 1.001 0.0250 ppm, read-out: observed % activity): 0% | inhibition at 0.05 ppm (Gaeumannomyces graminis, B5.1, 1.001 0.0500 ppm, read-out: observed % activity): 2% | inhibition at 0.1 ppm [2]: 0% | inhibition at 0.2 ppm [2]: 0% | inhibition at 0.0063 ppm (Gaeumannomyces graminis, B6.1, 1.001 0.0063 ppm, read-out: observed % activity): 0% | inhibition at 0.025 ppm (Gaeumannomyces graminis, B6.1, 1.001 0.0250 ppm, read-out: observed % activity): 0% | inhibition at 0.1 ppm (Gaeumannomyces graminis, B6.1, read-out: observed % activity): 0% | inhibition at 0.0125 ppm (Gaeumannomyces graminis, B9.1, 1.001 0.0125 ppm, read-out: observed % activity): 0% | inhibition at 0.025 ppm (Gaeumannomyces graminis, B9.1, 1.001 0.0250 ppm, read-out: observed % activity): 0% | inhibition at 0.05 ppm (Gaeumannomyces graminis, B9.1, 1.001 0.0500 ppm, read-out: observed % activity): 0% | inhibition at 0.1 ppm [3]: 0% | inhibition at 0.2 ppm [3]: 0%
